In brackets after ≈: the same amount, converted by molar mass.
tested on: Mycobacterium tuberculosis; assay: Antituberculosis activity against Mycobacterium tuberculosis H37Rv; format: functional

SMILES	MIC [µg/mL]
C[C@H]1C[C@@]23CC[C@H]4[C@@](C)(CCC[C@@]4(C)C(=O)O)[C@@H]2CC[C@]1(O)C3	20 (≈ 62.4 µM)
C[C@]12CC[C@H]3[C@](CC[C@@H]4[C@]3(C)CCC[C@]4(C)C(=O)O)(C[C@@H]1OC(=O)CC(=O)O[C@@H]1C[C@]34CC[C@H]5[C@@](C)(CCC[C@@]5(C)C(=O)O)[C@@H]3CC[C@@]1(C)C4)C2	12.5 (≈ 17.6 µM)
C[C@]12CC[C@H]3[C@](CC[C@@H]4[C@]3(C)CCC[C@]4(C)C(=O)O)(C[C@@H]1OC(=O)CCCCCCC(=O)O[C@@H]1C[C@]34CC[C@H]5[C@@](C)(CCC[C@@]5(C)C(=O)O)[C@@H]3CC[C@@]1(C)C4)C2	12.5 (≈ 16 µM)
C[C@]12CC[C@H]3[C@](CC[C@@H]4[C@]3(C)CCC[C@]4(C)C(=O)O)(C[C@@H]1OC(=O)CCCCCCCCC(=O)O[C@@H]1C[C@]34CC[C@H]5[C@@](C)(CCC[C@@]5(C)C(=O)O)[C@@H]3CC[C@@]1(C)C4)C2	12.5 (≈ 15.5 µM)
C[C@]12CC[C@H]3[C@@]4(CC[C@@H]5[C@]3(C)CCC[C@]5(C)C(=O)OCCCOC(=O)CC(=O)OCCCOC(=O)[C@]3(C)CCC[C@@]5(C)[C@@H]6CC[C@@]7(C)C[C@]6(CC[C@@H]53)C[C@H]7OC(=O)CCCCCCCCC(=O)O[C@H]1C4)C2	1 (≈ 1.01 µM)
C[C@@H]1C[C@]23CC[C@@H]4[C@](C)(CCC[C@]4(C)C(=O)O)[C@H]2CC[C@@]1(OC(=O)CC(=O)O[C@]12CC[C@@H]4[C@](CC[C@H]5[C@@]4(C)CCC[C@@]5(C)C(=O)O)(C[C@@H]1C)C2)C3	5 (≈ 7.05 µM)
C[C@@H]1C[C@]23CC[C@@H]4[C@](C)(CCC[C@]4(C)C(=O)O)[C@H]2CC[C@@]1(OC(=O)CCCCCCC(=O)O[C@]12CC[C@@H]4[C@](CC[C@H]5[C@@]4(C)CCC[C@@]5(C)C(=O)O)(C[C@@H]1C)C2)C3	20 (≈ 25.7 µM)
C[C@@H]1C[C@]23CC[C@@H]4[C@](C)(CCC[C@]4(C)C(=O)O)[C@H]2CC[C@@]1(OC(=O)CCCCCCCCC(=O)O[C@]12CC[C@@H]4[C@](CC[C@H]5[C@@]4(C)CCC[C@@]5(C)C(=O)O)(C[C@@H]1C)C2)C3	20 (≈ 24.8 µM)
C[C@@H]1C[C@]23CC[C@@H]4[C@]5(C)CCC[C@]4(C)C(=O)OC(=O)[C@]4(C)CCC[C@@]6(C)[C@@H]7CC[C@@]8(C[C@@]7(CC[C@@H]64)C[C@@H]8C)OC(=O)CCCCCCCCC(=O)O[C@]1(CC[C@@H]25)C3	5 (≈ 6.34 µM)
C[C@@H]1C[C@]23CC[C@@H]4[C@](C)(CCC[C@]4(C)C(=O)O)[C@H]2CC[C@@]1(OC(=O)CCCCCCCCC(=O)O)C3	10 (≈ 19.8 µM)
C[C@@H]1C[C@]23CC[C@@H]4[C@]5(C)CCC[C@]4(C)C(=O)OCCCOC(=O)CC(=O)OCCCOC(=O)[C@]4(C)CCC[C@@]6(C)[C@@H]7CC[C@@]8(C[C@@]7(CC[C@@H]64)C[C@@H]8C)OC(=O)CCCCCCCCC(=O)O[C@]1(CC[C@@H]25)C3	20 (≈ 20.2 µM)
NNC(=O)c1ccncc1 [ISONIAZID]	1 (≈ 7.29 µM)
C[C@@]12CC[C@@H]3[C@@](CC[C@H]4[C@@]3(C)CCC[C@@]4(C)C(=O)O)(CC1=O)C2 [ISOSTEVIOL]	50 (≈ 157 µM)

Reference: ChEMBL document CHEMBL2163231, “Synthesis and antituberculosis activity of novel unfolded and macrocyclic derivatives of ent-kaurane steviol” (2012)
